Measurements as given in the supplement of paper PMC11451515.

System: P12-Ichikawa
Test: cell viability relative to DMSO control; higher = less cytotoxic
Conditions: 48 h
Method in brief: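 Cells were incubated for 48 h at 37°C before CellTiter-Glo One luminescence was read. The cells were NOMO1 or SEM (500 cells/well) or P12-Ichikawa (1000 cells/well) leukemia cells, adapted for at least four passages in each medium and seeded in 1536-well plates (5 μl). Dosing used library compounds in DMSO applied by pin over 11 threefold points, 47 μM to 0.79 nM. Viability is the per-plate percentage of DMSO wells, with cell-free wells as background.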

[1] = HPLM + 10% dialyzed FBS, 0.000781 µM
[2] = HPLM + 10% dialyzed FBS, 0.00234 µM
[3] = HPLM + 10% dialyzed FBS, 0.00702 µM
[4] = HPLM + 10% dialyzed FBS, 0.0211 µM
[5] = HPLM + 10% dialyzed FBS, 0.0632 µM
[6] = HPLM + 10% dialyzed FBS, 0.19 µM
[7] = HPLM + 10% dialyzed FBS, 0.569 µM
[8] = HPLM + 10% dialyzed FBS, 1.71 µM
[9] = HPLM + 10% dialyzed FBS, 5.12 µM
[10] = HPLM + 10% dialyzed FBS, 15.4 µM
[11] = HPLM + 10% dialyzed FBS, 46.1 µM
[12] = RPMI 5 mM glucose + 10% FBS, 0.000781 µM
[13] = RPMI 5 mM glucose + 10% FBS, 0.00234 µM
[14] = RPMI 5 mM glucose + 10% FBS, 0.00702 µM
[15] = RPMI 5 mM glucose + 10% FBS, 0.0211 µM
[16] = RPMI 5 mM glucose + 10% FBS, 0.0632 µM
[17] = RPMI 5 mM glucose + 10% FBS, 0.19 µM
[18] = RPMI 5 mM glucose + 10% FBS, 0.569 µM
[19] = RPMI 5 mM glucose + 10% FBS, 1.71 µM
[20] = RPMI 5 mM glucose + 10% FBS, 5.12 µM
[21] = RPMI 5 mM glucose + 10% FBS, 15.4 µM
[22] = RPMI 5 mM glucose + 10% FBS, 46.1 µM
[23] = RPMI 5 mM glucose + 10% dialyzed FBS, 0.000781 µM
[24] = RPMI 5 mM glucose + 10% dialyzed FBS, 0.00234 µM
[25] = RPMI 5 mM glucose + 10% dialyzed FBS, 0.00702 µM
[26] = RPMI 5 mM glucose + 10% dialyzed FBS, 0.0211 µM
[27] = RPMI 5 mM glucose + 10% dialyzed FBS, 0.0632 µM
[28] = RPMI 5 mM glucose + 10% dialyzed FBS, 0.19 µM
[29] = RPMI 5 mM glucose + 10% dialyzed FBS, 0.569 µM
[30] = RPMI 5 mM glucose + 10% dialyzed FBS, 1.71 µM
[31] = RPMI 5 mM glucose + 10% dialyzed FBS, 5.12 µM
[32] = RPMI 5 mM glucose + 10% dialyzed FBS, 15.4 µM
[33] = RPMI 5 mM glucose + 10% dialyzed FBS, 46.1 µM

| SMILES | cell viability [1] [%] | cell viability [2] [%] | cell viability [3] [%] | cell viability [4] [%] | cell viability [5] [%] | cell viability [6] [%] | cell viability [7] [%] | cell viability [8] [%] | cell viability [9] [%] | cell viability [10] [%] | cell viability [11] [%] | cell viability [12] [%] | cell viability [13] [%] | cell viability [14] [%] | cell viability [15] [%] | cell viability [16] [%] | cell viability [17] [%] | cell viability [18] [%] | cell viability [19] [%] | cell viability [20] [%] | cell viability [21] [%] | cell viability [22] [%] | cell viability [23] [%] | cell viability [24] [%] | cell viability [25] [%] | cell viability [26] [%] | cell viability [27] [%] | cell viability [28] [%] | cell viability [29] [%] | cell viability [30] [%] | cell viability [31] [%] | cell viability [32] [%] | cell viability [33] [%] |
| --- | --- | --- | --- | --- | --- | --- | --- | --- | --- | --- | --- | --- | --- | --- | --- | --- | --- | --- | --- | --- | --- | --- | --- | --- | --- | --- | --- | --- | --- | --- | --- | --- | --- |
| COC1=CC=C(C=C1O)C/2=C/C(=O)C3=C(O2)C=C(O)C=C3O | 96.2 | 95.5 | 96.4 | 97 | 95.2 | 90.3 | 86.4 | 90.8 | 86.7 | 91.9 | 88.4 | 98 | 92.1 | 95.3 | 98.9 | 104 | 92.5 | 90.4 | 87.5 | 87.3 | 91.3 | 89.9 | 86.8 | 83.9 | 81.7 | 76.9 | 78.1 | 76.5 | 77.9 | 79.5 | 79.5 | 80.7 | 80.7 |
| COc1cccc([C@@H](C)NCCCc2ccccc2Cl)c1 | 93.8 | 98 | 89.9 | 93.3 | 97.5 | 99.9 | 94.4 | 92.7 | 99.3 | 99.2 | 106 | 95 | 94.2 | 94.3 | 85.9 | 96.9 | 91.9 | 94.1 | 92.8 | 90.6 | 94.9 | 103 | 83.1 | 87.5 | 85.3 | 88.1 | 91.3 | 90.7 | 87.4 | 91.4 | 95.2 | 98.1 | 99.8 |
| N#Cc1ccnc(Nc2cc(C3CCN(C4COC4)CC3)cc(N3CCC(F)(F)C3)n2)c1 | 97.8 | 99.8 | 104 | 105 | 99.5 | 104 | 100 | 108 | 107 | 88.2 | 36.1 | 105 | 104 | 101 | 101 | 102 | 99.7 | 108 | 115 | 108 | 62.8 | 32.2 | 108 | 104 | 101 | 103 | 109 | 104 | 106 | 108 | 111 | 56.8 | 36.8 |
| CCN(C(=O)C/1=C(O)/C2=C(C=CC=C2Cl)N(C)C1=O)C3=CC=CC=C3 | 93.7 | 100 | 98.1 | 102 | 97.9 | 93.2 | 95.9 | 77.6 | 31.8 | 2.09 | 3.36 | 90.3 | 97 | 98.7 | 105 | 88.8 | 77.5 | 82.7 | 52.7 | 25.4 | 1.95 | 2.3 | 85.2 | 91.3 | 91.5 | 96.4 | 99.6 | 78.5 | 82.8 | 46.1 | 16.3 | 2.21 | 3.11 |
| CC(C)c1ccc(Cn2ccc3c4c(N)nc(NC5CC5)nc4ccc32)cc1 | 110 | 116 | 119 | 84 | 116 | 100 | 83.4 | 65.6 | 32.7 | 26.7 | 2.54 | 118 | 123 | 127 | 84.8 | 126 | 133 | 133 | 114 | 52.2 | 51.5 | 2.24 | 118 | 124 | 122 | 86.4 | 139 | 126 | 132 | 85.5 | 36.5 | 32.1 | 2.44 |
| CN1\N=C(N)/C2=C[N]([C@@H]3O[C@H](CO[P](O)(O)=O)[C@@H](O)[C@H]3O)C4=C2C1=NC=N4 | 112 | 122 | 110 | 109 | 111 | 96.1 | 77.9 | 53 | 54 | 43.2 | 37.9 | 114 | 110 | 105 | 95.1 | 93.9 | 75.5 | 72 | 60.6 | 52.7 | 44.7 | 41.4 | 119 | 114 | 108 | 113 | 101 | 89.4 | 72.3 | 60.4 | 58.3 | 51 | 41.4 |
| C[C@H]1[C@@H](C(=O)C[C@H]2O[C@@H]3O[C@]4(C)CC[C@H]5[C@H](C)CC[C@@H]([C@H]2C)[C@@]35OO4)O[C@@H]2O[C@]3(C)CC[C@H]4[C@H](C)CC[C@@H]1[C@@]24OO3 | 117 | 113 | 116 | 124 | 115 | 119 | 113 | 110 | 90.1 | 86.3 | 14.4 | 117 | 130 | 121 | 121 | 120 | 119 | 102 | 104 | 102 | 82.7 | 9.74 | 120 | 111 | 112 | 113 | 110 | 101 | 98.8 | 102 | 93.6 | 56.1 | 15.4 |
| CC1(N2CCC(n3c([C@@H]4CCCNC4)nc4ccccc43)CC2)CCCCCCC1 | 101 | 95.4 | 106 | 111 | 113 | 115 | 113 | 115 | 108 | 88 | 55.6 | 98.3 | 95 | 104 | 115 | 110 | 111 | 124 | 118 | 110 | 86.9 | 67.9 | 97.1 | 101 | 104 | 115 | 112 | 107 | 110 | 109 | 109 | 81.7 | 65.9 |
| NC(=O)c1cccc2cn(-c3ccc([C@@H]4CCCNC4)cc3)nc12 | 90.3 | 94.4 | 103 | 104 | 110 | 105 | 108 | 106 | 101 | 86.9 | 33.8 | 83.9 | 90.4 | 96.8 | 100 | 103 | 105 | 101 | 102 | 103 | 75.5 | 24.5 | 94.1 | 98.6 | 103 | 105 | 108 | 113 | 103 | 106 | 101 | 88.4 | 55.5 |
| COC(=O)C1C2CC3c4[nH]c5cc(OC)ccc5c4CCN3CC2CC(OC(=O)c2cc(OC)c(OC)c(OC)c2)C1OC (stereo not drawn) | 106 | 109 | 112 | 107 | 115 | 111 | 101 | 105 | 110 | 107 | 102 | 115 | 120 | 121 | 114 | 107 | 109 | 118 | 112 | 111 | 113 | 91 | 121 | 106 | 119 | 114 | 104 | 113 | 105 | 106 | 107 | 99.5 | 102 |
| COC1=C2C[C@@H](C)C[C@H](OC)[C@H](O)[C@@H](C)/C=C(\C)[C@H](OC(N)=O)[C@@H](OC)/C=C/C=C(\C)C(=O)NC(=CC1=O)C2=O | 114 | 106 | 116 | 109 | 107 | 113 | 98.6 | 104 | 77.4 | 48.4 | 38.6 | 106 | 109 | 108 | 112 | 108 | 108 | 102 | 90.8 | 80.5 | 51.5 | 27.2 | 116 | 117 | 114 | 111 | 108 | 111 | 108 | 94.4 | 72.2 | 34.2 | 28 |
| CC[C@H](NC(=O)[C@H](C)NC)C(=O)N1C[C@@H](O)C[C@H]1Cc1c(-c2[nH]c3cc(F)ccc3c2C[C@@H]2C[C@H](O)CN2C(=O)[C@H](CC)NC(=O)[C@H](C)NC)[nH]c2cc(F)ccc12 | 115 | 129 | 124 | 137 | 137 | 125 | 139 | 131 | 32.8 | 31.3 | 110 |  |  |  |  |  |  |  |  |  |  |  |  |  |  |  |  |  |  |  |  |  |  |
| ClC1=CC\2=C(OC3=C(C=CC=C3)\N=C2N4CCNCC4)C=C1 | 100 | 104 | 113 | 103 | 109 | 101 | 107 | 109 | 99.7 | 98 | 95.5 | 103 | 105 | 107 | 105 | 93.8 | 90.6 | 99.6 | 95.2 | 90.3 | 87.7 | 87.8 | 100 | 102 | 100 | 104 | 99.3 | 99.7 | 99.1 | 92.5 | 89.3 | 98.3 | 88.6 |
| CCC(=O)N[C@H]1CC[C@H](C(=O)N(C)c2ccc(-c3nc4ccccc4o3)cc2)C1 | 95.4 | 97.1 | 101 | 102 | 100 | 99.5 | 110 | 103 | 107 | 104 | 84.4 | 92.3 | 95.4 | 96.4 | 91.3 | 101 | 105 | 108 | 95.6 | 97.5 | 100 | 54.8 | 89.9 | 92.2 | 91.5 | 98.3 | 94 | 99.7 | 98.2 | 109 | 99 | 94.6 | 65.1 |
| COc1ccc(C2Sc3ccccc3N(CCN(C)C)C(=O)C2OC(C)=O)cc1 (stereo not drawn) | 102 | 115 | 103 | 108 | 112 | 121 | 112 | 102 | 109 | 112 | 93.9 | 101 | 112 | 110 | 108 | 104 | 112 | 110 | 107 | 99.8 | 103 | 98.3 | 122 | 108 | 108 | 112 | 113 | 112 | 110 | 109 | 104 | 105 | 92.8 |
